Test results: PubChem BioAssay AID1963849 (Molecular Pharmacology Branch, DTP, NCI, 2024)

Test system: 299254-011-R-J1-PDC complex spheroid viability
Experiment: Anticancer human tumor 299254-011-R-J1-PDC patient-derived melanoma cell line growth inhibition [POLQ]
Conditions: for IC50: curve of first compound; for viability, T/C: stronger effect = lower value; active = viability on the fitted dose curve at most 10% of control; inactive = the rest
Protocol: Multicellular complex tumor spheroid response to Polymerase (POL) inhibitors (novobiocin, ART-558, RP6685) in combination with a variety of drugs and investigational agents in selected tumor cell lines
The POL inhibitors (novobiocin, ART-558, and RP6685) were evaluated both individually and in combination with standard of care and investigational anticancer small molecules within a complex spheroid model of solid tumors. . Complex spheroids include a stromal component modeled by human endothelial cells (HUVEC) and fibroblasts modeled by human mesenchymal stem cells (MSCs). The concentration ranges selected for each drug and investigational agent were based upon clinically achievable concentrations if the clinical Cmax of the agent was known.
Compounds. The drugs and investigational agents: novobiocin (NSC847541), ART-558 (NSC835418), RP-6685 (NSC848927), peposertib (NSC802822), ceralasertib (NSC780249), elimusertib (NSC800525), camonsertib (NSC841442), AZD-1390 (NSC803789), olaparib (NSC753686), talazoparib (NSC767125), rucaparib (NSC756644), sotorasib (NSC818433), MRTX-1133 (NSC836407), SN-38 (NSC673596), topotecan (NSC609699), epotoside (NSC141540), doxorubicin (NSC123127), gemcitabine (NSC613327), 5-fluorouracil (NSC19893), paclitaxel (NSC125973), vemurafenib (NSC761431), MSA-2 (NSC828583), SN-011 (NSC837082), adavosertib (NSC754352), prexasertib (NSC758257), carboplatin (NSC241240) and oxaliplatin (NSC266046), were obtained from the National Cancer Institute (NCI) Developmental Therapeutics Program Chemical Repository (21). The FDA-approved anticancer drug set is available from the Developmental Therapeutics Program at https://dtp.cancer.gov/organization/dscb/obtaining/. […] The stock solutions were prepared in dimethyl sulfoxide (DMSO, Sigma-Aldrich, St. Louis, MO, cat. D2650), except for the platinum compounds which were prepared in saline (Quality Biological, Gaithersburg, MD, cat. 114-055-101), at 800-fold the tested concentration and stored at -70 degrees C prior to their use. All drugs and investigational agents were tested over a range starting from a high concentration at or near the clinical Cmax and decreasing in half-log increments. If the clinical Cmax for an agent had not been determined, the highest concentration tested was 10 microM, except for SN-38, which was tested at a high concentration of 1 microM.
Cell Culture. All cells were maintained in an incubator at 37 degrees C and 5% CO2 with 95% humidity. The PDC lines were cultured according to standard operating procedures established by the NCI PDMR (https://pdmr.cancer.gov). Table 3 of the manuscript, lists the cell lines along with the number of the three cell types plated to form the mct-spheroids and media for tumor cell growth. After thawing, all PDC lines, except 997537-175-T-J1-PDC and 415267-285-R-J2-PDC, were cultured in Matrigel-coated flasks prepared with a working solution of 1X Ham's F-12 nutrient mix, without supplementation (Thermo Fisher Scientific, cat. 11765054), 100 U/mL penicillin-streptomycin (Thermo Fisher Scientific, cat. 15140122), and 2.5% Matrigel (Corning Inc., Corning, NY, cat. 354248) for the first three passages. The two PDC lines 997537-175-T-J1-PDC and 415267-285-R-J2-PDC were cultured on uncoated flasks. The 857933-349-R-J2-PDC line was cultured in 6C/Colon 1B media containing advanced DMEM/F-12 (Thermo Fisher Scientific, cat. 12634028), 10 mM HEPES (Thermo Fisher Scientific, cat. 15630080), 1X GlutaMAX supplement (Thermo Fisher Scientific, cat. 35050061), 0.1 mg/mL primocin (InvivoGen, San Diego, CA, cat. ant-pm-2), 10% defined fetal bovine serum, heat inactivated (HyClone Laboratories Inc., Logan, UT, cat. SH30070.03HI), 50% L-WRN conditioned media (ATCC, cat. CRL-3276), 1.25 mM N-Acetyl-L-cysteine (Sigma-Aldrich, cat. A9165), 10 mM nicotinamide (Sigma-Aldrich, cat. N0636), 1X B-27 supplement (Thermo Fisher Scientific, cat. 17504044), 1X N-2 supplement (Thermo Fisher Scientific, cat. […]

[1] = second compound 0.0316 µM, first compound 0.00316 µM
[2] = second compound 0.0316 µM, first compound 0.01 µM
[3] = second compound 0.0316 µM, first compound 0.0316 µM
[4] = second compound 0.0316 µM, first compound 0.1 µM
[5] = second compound 0.0316 µM, first compound 0.316 µM
[6] = second compound 0.0316 µM, first compound 1 µM
[7] = second compound 0.1 µM, first compound 0.00316 µM
[8] = second compound 0.1 µM, first compound 0.01 µM
[9] = second compound 0.1 µM, first compound 0.0316 µM
[10] = second compound 0.1 µM, first compound 0.1 µM
[11] = second compound 0.1 µM, first compound 0.316 µM
[12] = second compound 0.1 µM, first compound 1 µM
[13] = second compound 0.316 µM, first compound 0.00316 µM
[14] = second compound 0.316 µM, first compound 0.01 µM
[15] = second compound 0.316 µM, first compound 0.0316 µM
[16] = second compound 0.316 µM, first compound 0.1 µM
[17] = second compound 0.316 µM, first compound 0.316 µM
[18] = second compound 0.316 µM, first compound 1 µM
[19] = second compound 1 µM, first compound 0.00316 µM
[20] = second compound 1 µM, first compound 0.01 µM
[21] = second compound 1 µM, first compound 0.0316 µM
[22] = second compound 1 µM, first compound 0.1 µM
[23] = second compound 1 µM, first compound 0.316 µM
[24] = second compound 1 µM, first compound 1 µM
[25] = second compound 3.16 µM, first compound 0.00316 µM
[26] = second compound 3.16 µM, first compound 0.01 µM
[27] = second compound 3.16 µM, first compound 0.0316 µM
[28] = second compound 3.16 µM, first compound 0.1 µM
[29] = second compound 3.16 µM, first compound 0.316 µM
[30] = second compound 3.16 µM, first compound 1 µM
[31] = second compound 10 µM, first compound 0.00316 µM
[32] = second compound 10 µM, first compound 0.01 µM
[33] = second compound 10 µM, first compound 0.0316 µM
[34] = second compound 10 µM, first compound 0.1 µM
[35] = second compound 10 µM, first compound 0.316 µM
[36] = second compound 10 µM, first compound 1 µM
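Also: spheroids exposed to drugs for one week before measurement.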
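For viability, T/C in this document: percent viability relative to DMSO vehicle control taken as 100%.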

C=CCn1c(=O)c2cnc(Nc3ccc(N4CCN(C)CC4)cc3)nc2n1-c1cccc(C(C)(C)O)n1 + Nc1ccc(C#CCN(C(=O)Cc2ncc(C(F)(F)F)cc2C(F)(F)F)c2ccc(F)cc2)nn1
inactive: viability, T/C [1] 104% | viability, T/C [2] 85% | viability, T/C [3] 98.5% | viability, T/C [4] 105% | viability, T/C [5] 95.8% | viability, T/C [6] 68.3% | viability, T/C [7] 101% | viability, T/C [8] 93.1% | viability, T/C [9] 94.9% | viability, T/C [10] 102% | viability, T/C [11] 104% | viability, T/C [12] 69.9% | viability, T/C [13] 104% | viability, T/C [14] 101% | viability, T/C [15] 93.4% | viability, T/C [16] 93.4% | viability, T/C [17] 104% | viability, T/C [18] 74.6% | viability, T/C [19] 102% | viability, T/C [20] 120% | viability, T/C [21] 107% | viability, T/C [22] 97.2% | viability, T/C [23] 94.4% | viability, T/C [24] 58% | viability, T/C [25] 95.5% | viability, T/C [26] 95.5% | viability, T/C [27] 95.7% | viability, T/C [28] 95.3% | viability, T/C [29] 101% | viability, T/C [30] 72.5% | viability, T/C [31] 103% | viability, T/C [32] 92% | viability, T/C [33] 88.6% | viability, T/C [34] 87.5% | viability, T/C [35] 77.3% | viability, T/C [36] 58.9%
> 1000 nM: IC50 (second compound 0.0316 µM) | IC50 (second compound 0.1 µM) | IC50 (second compound 0.316 µM) | IC50 (second compound 1 µM) | IC50 (second compound 3.16 µM) | IC50 (second compound 10 µM)

COc1cccc(OCCCN)c1-c1cc(Nc2cnc(C#N)cn2)n[nH]1 + Nc1ccc(C#CCN(C(=O)Cc2ncc(C(F)(F)F)cc2C(F)(F)F)c2ccc(F)cc2)nn1
inactive: viability, T/C [1] 96.7% | viability, T/C [2] 129% | viability, T/C [3] 78.6% | viability, T/C [4] 61.2% | viability, T/C [5] 40.2% | viability, T/C [6] 42.6% | viability, T/C [7] 106% | viability, T/C [8] 107% | viability, T/C [9] 84.9% | viability, T/C [10] 49.2% | viability, T/C [11] 51.6% | viability, T/C [12] 42.3% | viability, T/C [13] 111% | viability, T/C [14] 97.5% | viability, T/C [15] 67% | viability, T/C [16] 51.8% | viability, T/C [17] 40% | viability, T/C [18] 35.5% | viability, T/C [19] 98.3% | viability, T/C [20] 111% | viability, T/C [21] 72.2% | viability, T/C [22] 51.6% | viability, T/C [23] 41.8% | viability, T/C [24] 37.2% | viability, T/C [25] 115% | viability, T/C [26] 79.6% | viability, T/C [27] 63.9% | viability, T/C [28] 41.7% | viability, T/C [29] 37% | viability, T/C [30] 46.6% | viability, T/C [31] 121% | viability, T/C [32] 75.1% | viability, T/C [33] 48.9% | viability, T/C [34] 38% | viability, T/C [35] 32.3% | viability, T/C [36] 35.7%
147 nM: IC50 (second compound 0.0316 µM)
70.6 nM: IC50 (second compound 3.16 µM)
96.8 nM: IC50 (second compound 0.316 µM)
79.5 nM: IC50 (second compound 1 µM)
97.4 nM: IC50 (second compound 0.1 µM)
29.4 nM: IC50 (second compound 10 µM)

C=CCn1c(=O)c2cnc(Nc3ccc(N4CCN(C)CC4)cc3)nc2n1-c1cccc(C(C)(C)O)n1 + COC1C(OC(N)=O)C(O)C(Oc2ccc3c(O)c(NC(=O)c4ccc(O)c(CC=C(C)C)c4)c(=O)oc3c2C)OC1(C)C
> 1000 nM: IC50 (second compound 0.0316 µM) | IC50 (second compound 0.1 µM) | IC50 (second compound 0.316 µM) | IC50 (second compound 1 µM) | IC50 (second compound 3.16 µM) | IC50 (second compound 10 µM)
inactive: viability, T/C [1] 89.1% | viability, T/C [2] 99.6% | viability, T/C [3] 99.6% | viability, T/C [4] 112% | viability, T/C [5] 95.1% | viability, T/C [6] 74.4% | viability, T/C [7] 116% | viability, T/C [8] 97.7% | viability, T/C [9] 127% | viability, T/C [10] 122% | viability, T/C [11] 87.5% | viability, T/C [12] 64.5% | viability, T/C [13] 105% | viability, T/C [14] 99% | viability, T/C [15] 101% | viability, T/C [16] 98.6% | viability, T/C [17] 115% | viability, T/C [18] 60.5% | viability, T/C [19] 111% | viability, T/C [20] 96.2% | viability, T/C [21] 96.4% | viability, T/C [22] 102% | viability, T/C [23] 97.9% | viability, T/C [24] 78.2% | viability, T/C [25] 112% | viability, T/C [26] 103% | viability, T/C [27] 94.9% | viability, T/C [28] 107% | viability, T/C [29] 95.3% | viability, T/C [30] 69.6% | viability, T/C [31] 104% | viability, T/C [32] 121% | viability, T/C [33] 115% | viability, T/C [34] 119% | viability, T/C [35] 95.2% | viability, T/C [36] 68.9%
